Eight molecules from ChEMBL document CHEMBL1135579, “Serine-threonine protein phosphatase inhibitors: development of potential therapeutic strategies” (J Med Chem, 2002) can be followed below.

Numbered stars: 1 amine (or outer) side, 2 acyl side, 3 side chain; on linkers, the order of the positions; unused ones are H or OH. Bridge positions count the residues as written; N and C are the ends. Square brackets hold non-standard residues; d marks the D form. Peptide text beside a SMILES is read from it. Adda = CO[C@@H](Cc1ccccc1)[C@@H](C)/C=C(C)/C=C/[C@H](N[*:1])[C@H](C)C(=O)[*:2]; dAsp(3S-Me) = C[C@H](C(=O)[*:3])[C@@H](N[*:1])C(=O)[*:2]; d(γGlu) = O=C(O)[C@@H](CCC(=O)[*:2])N[*:1]; NMeDha = C=C(NC)C(=O)O Some results are limits rather than exact numbers.

Experiment [1] is described as follows: Exogenous inhibition concentration of Serine/threonine protein phosphatase 2B (PP2B).
Experiment [2] can be described thus: Exogenous inhibition of Serine/threonine protein phosphatase 1 (PP1). Also on record: species or system Homo sapiens.
Experiment [3] can be described thus: Selectivity for interaction at Serine/threonine protein phosphatase 2B (PP2B). The note with it: read-out: Ki app.
For experiment [4], the target named is T1, Serine/threonine-protein phosphatase PP1-gamma catalytic subunit (Homo sapiens, UniProt P36873). Description: Inhibition of Serine/threonine protein phosphatase 1 (PP1) mutants by natural toxins in wild type.
Target sequence in this assay (P36873 2-323 limits assumed, stated change not applied): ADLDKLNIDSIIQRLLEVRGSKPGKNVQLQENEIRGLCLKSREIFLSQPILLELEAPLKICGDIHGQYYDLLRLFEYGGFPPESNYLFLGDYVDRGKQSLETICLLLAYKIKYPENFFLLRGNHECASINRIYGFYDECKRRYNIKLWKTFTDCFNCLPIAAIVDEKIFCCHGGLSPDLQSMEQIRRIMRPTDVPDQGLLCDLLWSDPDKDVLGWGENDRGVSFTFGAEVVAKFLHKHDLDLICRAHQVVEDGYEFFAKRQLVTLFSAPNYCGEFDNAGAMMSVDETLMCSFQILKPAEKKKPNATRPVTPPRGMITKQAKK
Experiment [5] is described as follows: Exogenous inhibition concentration of Serine/threonine protein phosphatase 5 (PP5).
A short description of experiment [6]: Exogenous inhibition concentration of Serine/threonine protein phosphatase 2C (PP2C); NI means no inhibition.
The target of experiment [7] is Serine/threonine-protein phosphatase PP1-gamma catalytic subunit (Homo sapiens, UniProt P36873, C127S). Description: Inhibition of Serine/threonine protein phosphatase 1 (PP1) mutants by natural toxins in C127S.
Sequence of Serine/threonine-protein phosphatase PP1-gamma catalytic subunit (Homo sapiens, UniProt P36873, C127S) (P36873 2-323 C127S limits assumed): as the sequence (P36873 2-323 limits assumed, stated change not applied) above, with C126S counted along it
Experiment [8] deals with Serine/threonine-protein phosphatase PP1-gamma catalytic subunit (Homo sapiens, UniProt P36873, D208A). The experiment in a line: Inhibition of Serine/threonine protein phosphatase 1 (PP1) mutants by natural toxins in D208A.
Sequence of Serine/threonine-protein phosphatase PP1-gamma catalytic subunit (Homo sapiens, UniProt P36873, D208A) (P36873 2-323 D208A limits assumed): as the sequence (P36873 2-323 limits assumed, stated change not applied) above, with D207A counted along it
Experiment [9] addresses Serine/threonine-protein phosphatase PP1-gamma catalytic subunit (Homo sapiens, UniProt P36873, D220V). The experiment in a line: Inhibition of Serine/threonine protein phosphatase 1 (PP1) mutants by natural toxins in D220V.
For experiment [10], the target named is Serine/threonine-protein phosphatase PP1-gamma catalytic subunit (Homo sapiens, UniProt P36873, E275R). Description: Inhibition of Serine/threonine protein phosphatase 1 (PP1) mutants by natural toxins in E275R.
Sequence of Serine/threonine-protein phosphatase PP1-gamma catalytic subunit (Homo sapiens, UniProt P36873, E275R) (P36873 2-323 E275R limits assumed): as the sequence (P36873 2-323 limits assumed, stated change not applied) above, with E274R counted along it
For experiment [11], the target named is Serine/threonine-protein phosphatase PP1-gamma catalytic subunit (Homo sapiens, UniProt P36873, H248N). The experiment in a line: Inhibition of Serine/threonine protein phosphatase 1 (PP1) mutants by natural toxins in H248N.
Sequence of Serine/threonine-protein phosphatase PP1-gamma catalytic subunit (Homo sapiens, UniProt P36873, H248N) (P36873 2-323 H248N limits assumed): as the sequence (P36873 2-323 limits assumed, stated change not applied) above, with H247N counted along it
Experiment [12] has as its target Serine/threonine-protein phosphatase PP1-gamma catalytic subunit (Homo sapiens, UniProt P36873, R221S). Description: Inhibition of Serine/threonine protein phosphatase 1 (PP1) mutants by natural toxins in R221S.
Experiment [13] deals with Serine/threonine-protein phosphatase PP1-gamma catalytic subunit (Homo sapiens, UniProt P36873, R96A). Description: Inhibition of Serine/threonine protein phosphatase 1 (PP1) mutants by natural toxins in R96A.
Sequence of Serine/threonine-protein phosphatase PP1-gamma catalytic subunit (Homo sapiens, UniProt P36873, R96A) (P36873 2-323 R96A limits assumed): as the sequence (P36873 2-323 limits assumed, stated change not applied) above, with R95A counted along it
Experiment [14] addresses Serine/threonine-protein phosphatase PP1-gamma catalytic subunit (Homo sapiens, UniProt P36873, Y272F). The experiment in a line: Inhibition of Serine/threonine protein phosphatase 1 (PP1) mutants by natural toxins in Y272F.
Experiment [15] is described as follows: Exogenous inhibition concentration of Serine/threonine protein phosphatase 4 (PP4).
For experiment [16], the target named is Serine/threonine-protein phosphatase PP1-gamma catalytic subunit (Homo sapiens, UniProt P36873, N124D). Description: Inhibition of Serine/threonine protein phosphatase 1 (PP1) mutants by natural toxins in N124D.
Sequence of Serine/threonine-protein phosphatase PP1-gamma catalytic subunit (Homo sapiens, UniProt P36873, N124D) (P36873 2-323 N124D limits assumed): as the sequence (P36873 2-323 limits assumed, stated change not applied) above, with N123D counted along it
Experiment [17] has as its system Jurkat. The experiment in a line: Inhibition of production of beta-galactosidase thymidine kinase RGA in Jurkat cells. The following applies: Homo sapiens. In kind it is functional, cell-based.
Experiment [18] is described as follows: Inhibition of growth after 72 hr continuous exposure to test compounds in Ovarian A2780 tumor cell lines. The following applies: A2780, 72 h. Type of experiment: functional.
The nature of experiment [19]: Inhibition of growth after 72 hr continuous exposure to test compounds in Osteosarcoma 143B tumor cell lines. Type of experiment: functional. The note with it: Homo sapiens.
Experiment [20] is described as follows: Inhibition of growth after 72 hr continuous exposure to test compounds in Ovarian ADDP tumor cell lines. In kind it is functional.
Experiment [21] can be described thus: Inhibition of growth after 72 hr continuous exposure to test compounds in Colon HCT 116 tumor cell lines. The note with it: Homo sapiens, HCT-116, 72 h. In kind it is functional.
Experiment [22] in a line: Inhibition of growth after 72 hr continuous exposure to test compounds in colon HT-29 tumor cell lines. The following applies: Homo sapiens, HT-29, 72 h. In kind it is functional.
Experiment [23] relates to Jurkat. The experiment in a line: Inhibition of production of beta-galactosidase IL-2 RGA in Jurkat cells. Type of experiment: functional, cell-based. The note with it: Homo sapiens.
A short description of experiment [24]: Inhibition of microcystin analogues to catalytic subunits of Serine/threonine protein phosphatase 1C.
The nature of experiment [25]: Exogenous inhibition concentration of Serine/threonine protein phosphatase 2A (PP2A).
For experiment [26], the target named is T1, Serine/threonine-protein phosphatase PP1-gamma catalytic subunit. Description: Inhibition of Serine/threonine protein phosphatase 1 by anhydride modified Cantharidin analogues.
Target sequence in this assay (P36873 whole entry): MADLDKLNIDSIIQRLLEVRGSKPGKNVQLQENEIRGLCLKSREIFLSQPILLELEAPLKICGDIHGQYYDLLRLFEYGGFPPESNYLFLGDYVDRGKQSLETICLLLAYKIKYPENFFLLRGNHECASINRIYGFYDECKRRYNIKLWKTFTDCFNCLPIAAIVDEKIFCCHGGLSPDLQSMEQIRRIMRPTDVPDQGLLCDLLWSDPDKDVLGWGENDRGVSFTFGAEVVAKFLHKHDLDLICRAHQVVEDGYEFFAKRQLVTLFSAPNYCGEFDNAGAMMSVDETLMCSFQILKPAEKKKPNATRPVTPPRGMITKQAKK

Sequence of Serine/threonine-protein phosphatase PP1-gamma catalytic subunit (Homo sapiens, UniProt P36873, D220V) (P36873 2-323 D220V limits assumed): as the sequence (P36873 2-323 limits assumed, stated change not applied) above, with D219V counted along it
Sequence of Serine/threonine-protein phosphatase PP1-gamma catalytic subunit (Homo sapiens, UniProt P36873, Y272F) (P36873 2-323 Y272F limits assumed): as the sequence (P36873 2-323 limits assumed, stated change not applied) above, with Y271F counted along it
Sequence of Serine/threonine-protein phosphatase PP1-gamma catalytic subunit (Homo sapiens, UniProt P36873, R221S) (P36873 2-323 R221S limits assumed): as the sequence (P36873 2-323 limits assumed, stated change not applied) above, with R220S counted along it

Broadly, the IC50 is the midpoint of a concentration-inhibition curve. Higher therefore signals weaker potency in that assay. In the case of `O=C(O)C1C2C[C@H](COC(=O)C3C[C@H]3c3ccccc3)[C@@H](O2)C1C(=O)O` (stereo partly specified), the IC50 in [1] turned out to be 11.5 µM; in experiment [2] it was 4 µM. Also, the Ki in experiment [3] came out at 0.5 µM.
For `C=C1C(=O)N[C@H](C)C(=O)N[C@@H](CC(C)C)C(=O)N[C@@H](C(=O)O)[C@H](C)C(=O)N[C@@H](CCCNC(=N)N)C(=O)N[C@@H](/C=C/C(C)=C/[C@H](C)[C@H](Cc2ccccc2)OC)[C@H](C)C(=O)N[C@@H](C(=O)O)CCC(=O)N1C` [MICROCYSTIN-LR] (R[Adda][d(γGlu)][NMeDha][dA]L[dAsp(3S-Me)]-OH; lactam N-7), the IC50 in experiment [4] was 0.02 nM; in [5], > 0.001 µM; in experiment [6] it was “no inhibition”; in experiment [7], 0.00056 µM; in [8] it was 0.0019 µM; in experiment [9], 0.02 nM. The IC50 in experiment [10] is 0.01 nM; in experiment [11], 0.035 µM; in experiment [12], 0.029 µM; in [13] it was 0.035 µM; in [14] it was 0.0008 µM; in [15], 8 pM. Also, the IC50 in [16] was 0.2 µM.
Broadly, the GI50 is the concentration at which growth is held to half of that of the control. Higher therefore signals lower sensitivity of the cells. Regarding `O=C1OC(=O)C2C3CCC(O3)C12` (stereo unspecified), the 50% inhibitory concentration (IC50) in the experiment on Jurkat [17] was 100 µM; with Jurkat [23], > 22 µM. The GI50 was determined as 50 µM in [18]; 43 µM in experiment [19]; 47 µM in experiment [20]; 24 µM in [21]; 33 µM in experiment [22].
In turn, `C=C1C(=O)N[C@H](CN)C(=O)N[C@@H](CC(C)C)C(=O)C[C@@H](C(=O)O)[C@H](C)C(=O)N[C@@H](C)C(=O)N[C@@H](/C=C/C(C)=C/[C@H](C)[C@H](Cc2ccccc2)OC)[C@H](C)C(=O)N[C@@H](C(=O)O)CCC(=O)N1C` displayed an IC50 in experiment [24] of 0.003 µM.
For `CO[C@@H](Cc1ccccc1)[C@@H](C)/C=C(C)/C=C/[C@@H]1NC(=O)[C@H](C)NC(=O)[C@@H](C)[C@H](C(=O)O)CC(=O)[C@H](CC(C)C)NC(=O)[C@@H](C)NC(=O)CN(C2CCCCC2)C(=O)CC[C@H](C(=O)O)NC(=O)[C@H]1C`, the IC50 in experiment [24] stood at 0.0008 µM.
For the molecule `O=C(O)[C@@H]1[C@H](C(=O)O)[C@H]2CC[C@@H]1O2`, the values for the IC50 in the experiment on Jurkat [17] and with Jurkat [23] were 42 µM and > 100 µM, respectively.
With `CC(=O)OC(C)(C)[C@H]1CC[C@](C)([C@@H](O)CC[C@](C)(O)[C@H]2CC[C@H]3O[C@@H]([C@]4(C)CC[C@@H](Br)C(C)(C)O4)CC[C@]3(C)O2)O1`, the IC50 in [25] was 4 µM; in experiment [1] it was > 10000 µM; in experiment [2], > 1000 µM.
For the molecule `COC1OC(=O)[C@H]2[C@@H]1[C@@H]1CC[C@H]2O1` (stereo partly specified), the GI50 is 538 µM in [18]; > 1000 µM in [19]; 323 µM in experiment [20]; 143 µM in experiment [21]; 28 µM in experiment [22]. Besides, the IC50 in experiment [26] is > 1000 µM.
